Consider 20 compounds from US6407091B1, “β-lactamase inhibiting compounds” (Research Corporation Technologies, Inc., priority 1999, dated 2002).

Where a name gives a salt, the structure may show the parent alone. Read-outs that look alike come from different tables or passages of the source.

The IC50 is the concentration needed to halve the response being measured.

Experiment [1] concerns the target Class C β-lactamase of Enterobacter cloacae P-99 (Enterobacter cloacae, UniProt P05364). The experiment can be described thus: IC50 for inhibition of Class C β-lactamase of Enterobacter cloacae P-99 (nitrocefin hydrolysis). Type of experiment: biochemical. On the procedure:
(§1) Representative compounds of formula I were evaluated as inhibitors of the Class C β-lactamase of Enterobacter cloacae P-99, a cephalosporinase, and TEM-1, a penicillinase, by relative IC50 analysis. The IC50 value represents the concentration of inhibitor required to effect a 50% loss of activity of free enzyme. The IC50 value of each compound was determined as follows. Following a 10 minute incubation of a dilute solution of enzyme (2.56 nM) and inhibitor (<0.64 mM), a […] of this incubation mixture was then further diluted into 1 mL nitrocefin solution, and the rate of hydrolysis was measured during a 1 minute period by monitoring the absorbance of nitrocefin as a function of time.

For the next experiment, the target named is TEM-1, a penicillinase (Escherichia coli, UniProt P62593). The experiment can be described thus: IC50 for inhibition of TEM-1 β-lactamase (nitrocefin hydrolysis). The format is biochemical. The conditions noted are these: read-out: IC50 Values for Inhibition of β-lactamase Derived from TEM-1. On the procedure: as §1
Sequence of TEM-1, a penicillinase (P62593 24-286 limits assumed): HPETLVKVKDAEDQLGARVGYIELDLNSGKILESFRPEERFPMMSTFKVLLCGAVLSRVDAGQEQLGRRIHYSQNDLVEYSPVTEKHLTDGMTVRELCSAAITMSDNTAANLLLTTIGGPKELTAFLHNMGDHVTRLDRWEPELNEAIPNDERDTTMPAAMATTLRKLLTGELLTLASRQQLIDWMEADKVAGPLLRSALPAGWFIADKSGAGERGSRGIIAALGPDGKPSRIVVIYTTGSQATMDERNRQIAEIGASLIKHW
The mark [2] stands for this setting: read-out: IC50 Values for Inhibition of β-lactamase Derived from P-99.
Where [3] appears, read: Table 2, compounds of formula IV, procedure similar to Table 1, read-out: IC50 Values for Inhibition of β-lactamase Derived from P-99.
Setting [4] is: Table 2, compounds of formula IV, procedure similar to Table 1.
[5] abbreviates: Table 1, 10 minute incubation of enzyme (2.56 nM) and inhibitor, nitrocefin hydrolysis, relative to tazobactam standard, read-out: IC50 Values for Inhibition of β-lactamase Derived from P-99.
[6] abbreviates: Table 1, 10 minute incubation of enzyme (2.56 nM) and inhibitor, nitrocefin hydrolysis, relative to tazobactam standard.

Sequence of Class C β-lactamase of Enterobacter cloacae P-99 (P05364 21-381): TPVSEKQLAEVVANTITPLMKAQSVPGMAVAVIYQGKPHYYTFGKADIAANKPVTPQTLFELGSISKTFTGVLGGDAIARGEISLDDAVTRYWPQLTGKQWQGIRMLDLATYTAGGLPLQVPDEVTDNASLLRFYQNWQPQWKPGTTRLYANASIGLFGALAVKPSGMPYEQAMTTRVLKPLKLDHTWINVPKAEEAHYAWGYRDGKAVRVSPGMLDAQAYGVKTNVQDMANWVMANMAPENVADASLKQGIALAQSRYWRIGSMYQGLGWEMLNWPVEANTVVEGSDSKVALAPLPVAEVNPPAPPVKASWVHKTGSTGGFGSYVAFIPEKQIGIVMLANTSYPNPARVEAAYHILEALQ

On to `CC1=C(C(=O)O)N2C(=O)C(=CC(=O)OC(C)(C)C)C2S(=O)(=O)C1` (stereo not shown) [II: R1=CO2-t-Bu, R3=CH3, reference compound], for which the IC50 came out at 199 µM in experiment [1] and 111 µM on TEM-1, a penicillinase.

Regarding `C=C1C(C)=C(C(=O)O)N2C(=O)C(=CC(=O)OC(C)(C)C)C2S1(=O)=O` (stereo not shown) [Compound 6d, Sodium Salt of 7-[(Z)-(tert-Butoxycarbonyl)methylene]-3′-desacetoxy-2(exomethylidene)cephalosporinate Sulfone], the IC50 in experiment [1] (setting [2]) came to 48.6 µM.

Regarding `O=C(O)C1=C(/C=C/c2cccc[n+]2[O-])CS(=O)(=O)C2/C(=C\c3ccccn3)C(=O)N12` (stereo not shown) [Compound 13c, Sodium 1,1-Dioxo-3-{2′E-[2″-(pyridin-N-oxide)ethenyl]}-7Z-[(2′″-pyridyl)methylidene]-3-cephem-4-carboxylate], the IC50 stood at 0.6 µM in experiment [1] (setting [3]) and 0.006 µM at TEM-1, a penicillinase (setting [4]).

Take `CC(C)(C)OC(=O)/C=C/C1=C(C(=O)O)N2C(=O)/C(=C/c3ccccn3)C2S(=O)(=O)C1` (stereo not shown) [Compound 13e, Sodium 1,1-Dioxo-3-[2′E-(t-butoxycarbonylethenyl)]-7Z-[(2″-pyridyl)methylidene]-3-cephem-4-carboxylate]: the IC50 in experiment [1] (setting [3]) turned out to be 1.48 µM.

As to `C=C1C(COC(C)=O)=C(C(=O)O)N2C(=O)C(=Cc3ccccn3)C2S1(=O)=O` (stereo not shown) [Compound 6a, Sodium Salt of 7-[(Z)-(2′-Pyridyl)methylene]-2-(exomethylidene)cephalosporanic Acid Sulfone], half-maximal inhibition in experiment [1] (IC50) was put at 0.165 µM.

As for `N#CC1=C(C(=O)O)N2C(=O)/C(=C/c3ccccn3)C2S(=O)(=O)C1` (stereo not shown) [Compound 19, Sodium 1,1-Dioxo-3-cyano-7Z-[(2′-pyridyl)methylidene]-3-cephem-4-carboxylate], the IC50 in experiment [1] came out at 0.029 µM; at TEM-1, a penicillinase (setting [4]) it was 2.34 µM.

As for `C=C1C(COC(C)=O)=C(C(=O)O)N2C(=O)/C(=C/C(=O)O)C2S1(=O)=O` (stereo not shown) [Compound 6h, Disodium Salt of 7-[(Z)-(Carboxy)methylene]-2-(exomethylidene)-cephalosporinate Sulfone], the IC50 amounted to 2.49 µM in experiment [1] (setting [5]) and 498 µM on TEM-1, a penicillinase (setting [6]).

Turning to `CC(=O)OCC1=C(C(=O)O)N2C(=O)C(=Cc3ccccn3)C2S(=O)(=O)C1` (stereo not shown) [II: R1=2-pyr, R3=CH2OAc, reference compound], the IC50 in experiment [1] amounted to 1.35 µM; at TEM-1, a penicillinase, 14.4 µM.

Turning to `Cn1nnnc1SCC1=C(C(=O)O)N2C(=O)C(=CC(=O)OC(C)(C)C)C2S(=O)(=O)C1` (stereo not shown) [II: R1=CO2-t-Bu, R3=CH2S(C2N4H3), reference compound], the IC50 amounted to 112 µM in experiment [1] and 0.123 µM at TEM-1, a penicillinase.

Consider “Sodium [2-1(Bisthiomethyl)exomethylene]-7-[(Z)-(2″-pyridinyl)methylene]-3′-desacetoxycephalosporinate [Compound 6g]”, for which the IC50 in experiment [1] (setting [5]) came to 0.51 µM; at TEM-1, a penicillinase (setting [6]), 173 µM.

With `C=C1C(C)=C(C(=O)O)N2C(=O)/C(=C/C(=O)O)C2S1(=O)=O` (stereo not drawn) [Compound 6i, Disodium Salt 7-[(Z)(Carboxy)methylene]-3′-desacetoxy-2-(exo-methylidene)cephalosporinate Sulfone], the concentration for half-maximal inhibition (IC50) in experiment [1] (setting [5]) turned out to be 36.8 µM; on TEM-1, a penicillinase (setting [6]), 277 µM.

Turning to `C=C1C(CSc2nnnn2C)=C(C(=O)O)N2C(=O)C(=CC(=O)OC(C)(C)C)C2S1(=O)=O` (stereo not shown) [Compound 6f, Sodium Salt of Benzhydryl 7-[(Z)-(tert-Butylcarboxy)methylene]-3′-desacetoxy-2-exomethylidene-3′-[1″-methyl-1″H-tetrazol-5″-yl)thio]cephalosporinate Sulfone], the IC50 in experiment [1] (setting [2]) is 2.38 µM.

Take `N#C/C=C/C1=C(C(=O)O)N2C(=O)/C(=C/c3ccccn3)C2S(=O)(=O)C1` (stereo not shown) [Compound 13a, Sodium 3-[2′E-(Cyanoethenyl)]-1,1-dioxo-7Z-[(2″-pyridyl)methylidene]-3-cephem-4-carboxylate]: the IC50 in experiment [1] was 0.01 µM; on TEM-1, a penicillinase (setting [4]) it was 2.7 µM.

Consider `C=C1C(COC(C)=O)=C(C(=O)O)N2C(=O)C(=CC(=O)OC(C)(C)C)C2S1(=O)=O` (stereo not shown) [Compound 6b, Sodium Salt of 7-[(Z)-(tert-Butoxycarbonyl)methylene]-2-(exomethylidene)cephalosporinate Sulfone], for which, in experiment [1] (setting [2]), the IC50 turned out to be 1.55 µM.

Take `COC(=O)/C(Cl)=C/C1=C(C(=O)O)N2C(=O)/C(=C/c3ccccn3)C2S(=O)(=O)C1` (stereo not shown) [Compound 13f]: the IC50 worked out at 0.2 µM in experiment [1] (setting [3]) and 0.02 µM on TEM-1, a penicillinase (setting [4]).

For `O=C(O)/C=C/C1=C(C(=O)O)N2C(=O)/C(=C/c3ccccn3)C2S(=O)(=O)C1` (stereo not shown) [Compound 13g, Disodium 3-[2′E-Carboxyethenyl]-1,1-dioxo-7Z-[(2″-pyridyl)methylidene]-3-cephem-4-carboxylate], the IC50 in experiment [1] (setting [3]) is 0.31 µM; on TEM-1, a penicillinase (setting [4]), 2.52 µM.

Take `COC(=O)/C=C/C1=C(C(=O)O)N2C(=O)/C(=C/c3ccccn3)C2S(=O)(=O)C1` (stereo not shown) [Compound 13b, Sodium 1,1-Dioxo-3-[2′E-(methoxycarbonylethenyl)]-7Z-[(2″-pyridyl)methylidene]-3-cephem-4-carboxylate]: the IC50 in experiment [1] was found to be 0.2 µM; at TEM-1, a penicillinase (setting [4]) it was 0.02 µM.

As to `C=C1C(C)=C(C(=O)O)N2C(=O)C(=Cc3ccccn3)C2S1(=O)=O` (stereo not shown) [Compound 6c, Sodium Salt of 7-((Z)-(2″-Pyridinyl)methylene]-3′-desacetoxy-2-(exomethylidene)cephalosporinate Sulfone], the IC50 in experiment [1] (setting [2]) came to 0.039 µM.

For the compound `C=C1C(=O)N2C(C(=O)O)=C(COC(C)=O)C(=C)S(=O)(=O)C12` (stereo not shown) [III: R3=CH2OAc, reference compound], the IC50 in experiment [1] is 315 µM; at TEM-1, a penicillinase it was more than 2000 µM.

For the compound `CC1=C(C(=O)O)N2C(=O)/C(=C/c3ccccn3)C2S(=O)(=O)C1` (stereo not shown) [II: R1=2-pyr, R3=CH3, reference compound], the IC50 is 6.1 µM in experiment [1] and 377 µM at TEM-1, a penicillinase.
